Laboratory results from patent publication US20130065818A1, “Arylamide Compounds And Compositions And Uses Thereof” (POLYMEDIX, priority 2006, published 2013).

Assay: NZW rabbit keratitis model, clinical evaluation (Total Ocular Score)
Experimental: Fifteen rabbits were received from Myrtles' Rabbitry, Thompson Station, TN. The clinical isolate of fluoroquinolone-resistant, methicillin-resistant (MRSA) Staphylococcus aureus (K950) was subcultured on 5% sheep blood agar and incubated at 37° C. in 6% CO2 overnight. The next morning, the MRSA strain was suspended in sterile trypticase soy broth to a 0.5 McFarland Standard, containing approximately 5×10^8 cfu/ml of bacteria. The absorbance of the suspension was measured at 650 nm using a Beckman DU-70 spectrophotometer. OD readings of 0.07 corresponded to 5×10^8 cfu/ml of bacteria. This concentration was appropriately diluted in sterile trypticase soy broth to provide the inoculum of approximately 1,000 (1.0×10^3) cfu/eye in 25 μl. Colony counts were performed on the inoculum to determine the actual cfu inoculated. Following general anesthesia with ketamine and xylazine and topical anesthesia with proparacaine and prior to bacterial inoculation in the left eyes, 6 mm areas of the corneal epithelia was removed centrally with an Amoils epithelial scrubber. Nothing was done to the right eyes. The 15 rabbits were then inoculated intrastromally in both eyes with 25 μl of the bacterial dilution of approximately 10^3 cfu/eye of the bacteria. The bacterial inoculation of the left eyes was directly under the epithelial defect created by the Amoils epithelial scrubber. The epithelia were removed in the left corneas in order to determine whether this layer of the cornea is a barrier for Oligomer 2 penetration when compared to the right cornea with an intact epithelium. A colony count was done on the inoculum to determine the actual cfu inoculated. The rabbits were immediately treated with analgesia in the form of and intramuscular injection of ketoprofen, 1.5 mg/kg. After 4 hours, the 15 rabbits were divided into 4 treatment groups and one untreated control group sacrificed at the onset of therapy. Both eyes of each rabbit of the treatment groups were treated with one 37 μl drop of the coded solutions or control Saline or 1 drop of vancomycin from its dropper bottle. The Oligomer 2 concentrations were masked and labeled as 1 and 2. The masked concentrations were 1% Oligomer 2 and 0.5% Oligomer 2 but the specific concentrations of solutions were not known to the lab workers who carried out the experiment. The vancomycin and control (Tris-Buffered Saline) were not masked.
Treatment was scheduled for every 15 minutes for 5 hours (21 total doses). However, PMX-1 and PMX-2 were exhausted after the 19th dose. Therefore, the actual treatment was 15 minutes for 4.5 hours (19 total doses). The 3 rabbits in group V were sacrificed 4 hours PI and large 9.5 mm buttons were removed from the corneas. These were placed in 1 ml of PBS and kept on ice. The corneal buttons were homogenized for 25 seconds on ice using the motorized homogenizer. After homogenization, colony counts were done on the homogenates using 5% sheep blood agar plates to determine the amount of bacteria contained in the corneas at the onset of therapy. Following the completion of therapy, the eyes were examined for clinical signs of infection. One hour after the final treatment, the treated rabbits (Groups I-IV) were sacrificed and large 9.5 mm buttons were removed from the corneas. These were placed in 1 ml of PBS and kept on ice. The corneal buttons were homogenized for 25 seconds on ice using the motorized homogenizer. After homogenization, colony counts were performed on the homogenates using 5% sheep blood agar plates to determine the amount of bacteria contained in the corneas after treatment. The next morning, the plates were counted and the number of cfu/eye of Staphylococcus aureus was determined for each cornea.
Fifteen rabbits were received from Myrtles' Rabbitry, Thompson Station, TN.

Effect of removal of the epithelium on Total Ocular Scores (Ker-1, 1% and 0.5% Oligomer 2, compared with intact epithelia) | Compound | Toxicity (Total Ocular Scores) compared with Saline treated eyes (rabbit, in vivo)
increased the Total Ocular Scores | N=C(N)NCCCCC(=O)Nc1cc(C(F)(F)F)cc(NC(=O)c2cc(C(=O)Nc3cc(C(F)(F)F)cc(NC(=O)CCCCNC(=N)N)c3SCCN)ncn2)c1SCCN [Oligomer 2] | –
– | CC(C)=CCCC(C)=CCCC(C)=CCO [Farnesol] | did not induce statistically greater toxicity
